Experimental findings from patent US11858899B2, “Complexation of pirfenidone with polyphenolic calixarene or resorcin[4]arenes” (University of Cincinnati, priority 2021, dated 2024) are described below.

The structures appear in SMILES notation. In brackets after ≈: the same amount, converted by molar mass. Entries after “also recorded” stand apart in the source; their conditions may differ. Like-named read-outs stand apart in the source and are kept apart here.

One experiment has as its system C. acnes. The experiment can be described thus: Broth serial dilution MIC / growth inhibition in 96-well plate. The experiment is classed as cell-based, Cutibacterium acnes. To be noted: for GI (growth inhibition): at the MIC concentration; for MIC: test range 128-2 ug/mL, LB medium. As to the method:
3 mg/ml stock solutions of RsC1, PFD and RsC1-PFD were prepared in DMSO (bcoz host soluble in DMSO solution). From the stock, a working solution 4× (highest conc. for each compound in plate) was prepared in LB media. 50 uL of LB media were first added in each well (96 well plate). Then a 4× solution of each respective compound was added to the first row (A4-A12) except A1-A3 (Positive control/bacterial innoculum). Then the 4× was serially diluted up to well G for all 3 compounds. (A-G). Then, a 50 uL aliquot of the 100-fold diluted bacterial inoculum was added in each test well. Individual test concentrations (in triplicate wells in a 96-well plate) for the given compounds were achieved by serial dilution by using LB medium. Total volume in each well was 100 uL. The final-test concentration range for the individual test compounds for C. acne were as follows: Macrocycle, PFD and RsC1-PFD complex (128-2 ug/mL). The results are shown in FIG. 10, which is a bar plot of absorbance (at 600 nm) at various test compound concentrations, showing the percent inhibition of pathogen growth in the presence of decreasing concentrations of the test compounds using a twofold dilution series.
(§1) 3 mg/ml stock solutions of PFD, RsC4-PFD (1:1 complex), and RsC4 were prepared in DMSO (bcoz host soluble in DMSO solution). From the stock, a working solution 4× (highest conc. for each compound in plate) was prepared in LB media. 50 uL of LB media was first added in each well (96 well plate). Then a 4× solution of the respective compound was added to the first row (A4-A12) except A1-A3 (Positive control/bacterial innoculum). Then, the 4× was serially diluted up to well G for all 3 compounds. (A-G). Then, a 50 uL aliquot of the 100-fold diluted bacterial inoculum was added in each test well. Individual test concentrations (in triplicate wells in a 96-well plate) for the given compounds were achieved by serial dilution by using LB medium. Total volume in each well is 100 uL. The final-test concentration range for the individual test compounds for C. acne as follows: Macrocycle, PFD and RsC4-PFD complex (128-2 ug/mL).
as §1, with “PFD, RsC1, RsC1-PFD (1:1 complex), RsC4, and” for “PFD,”, “complex)” for “complex), and RsC4”, “acnes, S. aureus and P. aeruginosa are” for “acne”, “PFD, RsC1, RsC4, RsC1-PFD complex” for “Macrocycle, PFD”

For experiment [1], the system named is Staphylococcus aureus (G+ve) bacteria. The experiment can be described thus: Zone of inhibition (ZI) paper disc test, antibacterial/antioxidant activity. To be noted: for Inference: radical scavenger: from ZI change with H2O2 / pyrogallol; for Inference: Anti-bacterial potential: from ZI of pure compound; for Zone of inhibition (ZI), 5 uL of (Compound + H2O2): premixed 0.01M compound + 0.88M H2O2, 1:1, decrease vs pure H2O2 = antioxidant; for Zone of inhibition (ZI), 5 uL of (Compound + Pyrogallol): premixed 0.01M compound + 1M Pyrogallol, 1:1, decrease vs pure pyrogallol = antioxidant; for Zone of inhibition (ZI), 5 uL of 0.01M Compound: pure compound on paper disc, zone width around disk. The experiment is classed as cell-based. As to the method: Tests were conducted to check the antioxidant/antibacterial activity of macrocycle and host-guest compounds. 5 uL of 0.01M compound, 5 uL (premixed, 0.01M compound+1M Pyrogallol, 1:1) and 5 uL (premixed, 0.01M compound+0.88M H2O2, 1:1) were added on paper discs placed on plates. 5 uL of 1M pyrogallol, 5 uL of 0.88M H2O2 were used as control (oxidants). In the following tables, Decrease/Increase means wrt pure H2O2 or pyrogallol. […] Zone=mm of zone width around disk.

The subject of experiment [2] is Pseudomonas aeruginosa (G-ve) bacteria. Described as above. The experiment is classed as cell-based. To be noted: for Inference: radical scavenger: from ZI change with H2O2 / pyrogallol; for Zone of inhibition (ZI), 5 uL of (Compound + H2O2): premixed 0.01M compound + 0.88M H2O2, 1:1; for Zone of inhibition (ZI), 5 uL of (Compound + Pyrogallol): premixed 0.01M compound + 1M Pyrogallol, 1:1; for Zone of inhibition (ZI), 5 uL of 0.01M Compound: pure compound on paper disc. As to the method: (§2) Tests were conducted to check the antioxidant/antibacterial activity of macrocycle and host-guest compounds. 5 uL of 0.01M compound, 5 uL (premixed, 0.01M compound+1M Pyrogallol, 1:1) and 5 uL (premixed, 0.01M compound+0.88M H2O2, 1:1) were added on paper discs placed on plates. 5 uL of 1M pyrogallol, 5 uL of 0.88M H2O2 were used as control (oxidants). In the following tables, Decrease/Increase means wrt pure H2O2 or pyrogallol. […] Zone=mm of zone width around disk. Decrease/Increase wrt pure H2O2 or pyrogallol.

For experiment [3], the system named is klebsiella pneumoniae (G -ve) bacteria. The experiment is described as above. The experiment is classed as cell-based. The conditions noted are these: for Inference: radical scavenger: from ZI change with H2O2 / pyrogallol; for Zone of inhibition (ZI), 5 uL of (Compound + H2O2): premixed 0.01M compound + 0.88M H2O2, 1:1; for Zone of inhibition (ZI), 5 uL of (Compound + Pyrogallol): premixed 0.01M compound + 1M Pyrogallol, 1:1; for Zone of inhibition (ZI), 5 uL of 0.01M Compound: pure compound on paper disc. The method, then:
as §2

The subject of a further experiment is E. Coli (G-ve) bacteria. The experiment is described as above. The experiment is classed as cell-based. The conditions noted are these: for Inference: radical scavenger: from ZI change with H2O2 / pyrogallol; for Zone of inhibition (ZI), 5 uL of (Compound + H2O2): premixed 0.01M compound + 0.88M H2O2, 1:1; for Zone of inhibition (ZI), 5 uL of (Compound + Pyrogallol): premixed 0.01M compound + 1M Pyrogallol, 1:1; for Zone of inhibition (ZI), 5 uL of 0.01M Compound: pure compound on paper disc. The method, then: as §2

In the next experiment the test system is S. aureus (MU50). The experiment can be described thus: Broth serial dilution MIC / growth inhibition in 96-well plate. The conditions noted are these: for GI (growth inhibition): at the MIC concentration; for MIC: test range 128-2 ug/mL, LB medium. The experiment is classed as cell-based, Staphylococcus aureus. The method, then: as §1, with “PFD, RsC1, RsC1-PFD (1:1 complex), RsC4, and” for “PFD,”, “complex)” for “complex), and RsC4”, “acnes, S. aureus and P. aeruginosa are” for “acne”, “PFD, RsC1, RsC4, RsC1-PFD complex” for “Macrocycle, PFD”

The subject of the next experiment is P. aeruginosa (BAMF). The description is as above. To be noted: for GI (growth inhibition): at the MIC concentration; for MIC: test range 128-2 ug/mL, LB medium. The experiment is classed as cell-based, Pseudomonas aeruginosa. As to the method:
as §1, with “PFD, RsC1, RsC1-PFD (1:1 complex), RsC4, and” for “PFD,”, “complex)” for “complex), and RsC4”, “acnes, S. aureus and P. aeruginosa are” for “acne”, “PFD, RsC1, RsC4, RsC1-PFD complex” for “Macrocycle, PFD”

As to `CC1c2cc(c(O)cc2O)C(C)c2cc(c(O)cc2O)C(C)c2cc(c(O)cc2O)C(C)c2cc1c(O)cc2O` (stereo not drawn) [RsC1, C-methylresorcin[4]arene], the “percent inhibition of pathogen growth” value in the experiment on C. acnes (at 16 μg/mL, absorbance at 600 nm (FIG. 10)) was found to be 35%. Besides, the results for the “GI (growth inhibition)” value in the experiment on C. acnes, with S. aureus (MU50) and in the experiment with P. aeruginosa (BAMF) were 96%, 98% and 47%, respectively. Also, the MIC (commonly the lowest concentration that inhibits growth of the organism) in the experiment with C. acnes was 64 µg/mL (≈ 118 µM); in the experiment on S. aureus (MU50), 16 µg/mL (≈ 29.4 µM); with P. aeruginosa (BAMF) it was 64 µg/mL (≈ 118 µM). Besides, the “Inference: radical scavenger” value in experiment [1] is “potential/Low”; in experiment [2] (listed as R1), “low antioxidant activity; also recorded: Low radical”; in experiment [3] it was “Moderate”; in the experiment with E. Coli (G-ve) bacteria, “Moderate”. Moreover, the “Inference: Anti-bacterial potential” value in experiment [1] (listed as R1) is recorded as “slight anti-bacterial activity”. The “Zone of inhibition (ZI), 5 uL of (Compound + H2O2)” value is “(4.2 mm)” in experiment [1], “(2.1 mm)” in experiment [2], “(2.4 mm)” in experiment [3] and “(1.9 mm)” in the experiment on E. Coli (G-ve) bacteria. Also, the “Zone of inhibition (ZI), 5 uL of (Compound + Pyrogallol)” value in experiment [1] is “(2.5 mm)”; in experiment [2] it was “pyrogallol (1.2 mm”; in experiment [3], “No ZI”; with E. Coli (G-ve) bacteria, “No ZI”. Also, the “Zone of inhibition (ZI), 5 uL of 0.01M Compound” value in experiment [1] is given as “(1.2 mm)”; in experiment [2], “No ZI”; in experiment [3], “No ZI”; in the experiment on E. Coli (G-ve) bacteria it was “No ZI”.
With `Cc1ccc(=O)n(-c2ccccc2)c1` [PFD, 5-methyl-1-phenylpyridin-2-one], the minimal inhibitory concentration (MIC) was 128 µg/mL (≈ 691 µM) with C. acnes (Cutibacterium acnes, read-out: MIC); 128 µg/mL (≈ 691 µM) with S. aureus (MU50) (Staphylococcus aureus, read-out: MIC); 128 µg/mL (≈ 691 µM) in the experiment on P. aeruginosa (BAMF) (Pseudomonas aeruginosa, read-out: MIC). Moreover, the “GI (growth inhibition)” value is listed as 98% with C. acnes, 45% with S. aureus (MU50) and 35% in the experiment on P. aeruginosa (BAMF). The “Inference: radical scavenger” value is given as “low to high free radical scavenging effect; also recorded: Moderate” in experiment [1], “no free radical scavenging effect” in experiment [2], “Moderate” in experiment [3] and “Moderate OH” in the experiment on E. Coli (G-ve) bacteria. Besides, the “Zone of inhibition (ZI), 5 uL of (Compound + H2O2)” value in experiment [1] is given as “slightly (3.8 mm”; in experiment [2], “(2.7 mm)”; in experiment [3], “(2.2 mm)”; in the experiment on E. Coli (G-ve) bacteria it was “(1.7 mm)”. Moreover, the “Zone of inhibition (ZI), 5 uL of (Compound + Pyrogallol)” value in experiment [1] is “No ZI”; in experiment [2], “pyrogallol (1.2 mm”; in experiment [3], “No ZI”; in the experiment with E. Coli (G-ve) bacteria, “No ZI”. The “Zone of inhibition (ZI), 5 uL of 0.01M Compound” value (in experiment [1]; in experiment [2]; in experiment [3]; in the experiment on E. Coli (G-ve) bacteria) was “No ZI” throughout.
Take `CCCCC1c2cc(c(O)cc2O)C(CCCC)c2cc(c(O)cc2O)C(CCCC)c2cc(c(O)cc2O)C(CCCC)c2cc1c(O)cc2O` (stereo not drawn) [RsC4, C-butylresorcin[4]arene]: the “GI (growth inhibition)” value in the experiment with C. acnes amounted to 98%; in the experiment on S. aureus (MU50) it was 52%; in the experiment with P. aeruginosa (BAMF), 56%. Also, the results for the MIC in the experiment on C. acnes, against S. aureus (MU50) and in the experiment with P. aeruginosa (BAMF) were 128 µg/mL (≈ 180 µM), 128 µg/mL (≈ 180 µM) and 64 µg/mL (≈ 89.8 µM), respectively. Further, the “Inference: radical scavenger” value is recorded as “Low radical” in experiment [1], “Low radical” in experiment [2], “High OH” in experiment [3] and “Moderate” in the experiment on E. Coli (G-ve) bacteria. Besides, in experiment [1], the “Inference: Anti-bacterial potential” value is on record as “none”. Also, the “Zone of inhibition (ZI), 5 uL of (Compound + H2O2)” value in experiment [1] is reported as “(3.6 mm)”; in experiment [2] it was “(2.1 mm)”; in experiment [3], “No ZI”; with E. Coli (G-ve) bacteria, “(1.7 mm)”. The “Zone of inhibition (ZI), 5 uL of (Compound + Pyrogallol)” value in experiment [1] is given as “(2.3 mm)”; in experiment [2] it was “(1.4 mm)”; in experiment [3], “No ZI”; with E. Coli (G-ve) bacteria, “No ZI”. Besides, the “Zone of inhibition (ZI), 5 uL of 0.01M Compound” value (in experiment [1]; in experiment [2]; in experiment [3]; in the experiment on E. Coli (G-ve) bacteria) was “No ZI” throughout.
